The values below come from patent US6417160B1, “Methods for increasing schwann cell survival” (priority 1997, dated 2002).

One data set relates to PD2 Schwann cells. The data set is described as follows: Mitochondrial membrane potential (ΔΨM) by CMTMR confocal imaging. Particulars: 40 mM glucose, DMD 10^−9 M; for distribution frequencies of ΔΨM (CMTMR intensity): 6 h, CsA 10^−7, ATR 1 mM; for CMTMR fluorescent intensity (confocal images): 6 hr, CsA 10^−7 M, ATR 1 mM. In kind it is cell-based, rat. An excerpt: As has been previously reported in a number of models of apoptosis, apoptotic cell death is often preceded by a fall in mitochondrial membrane potential (ΔΨM). […] This dye is preferentially taken up by actively respiring mitochondria where it binds to protein thiol groups within the mitochondrial matrix and is retained following aldehyde fixation. The CMTMR fluorescence intensity therefore represents the highest level of negativity difference (i.e., the greatest ΔΨM) in the mitochondria during the period of dye exposure prior to fixation.
A Leica true confocal scanning (TCS) microscope was used to image the cells. A pinhole aperture of 20 is maintained with constant laser and photo-detector power settings and an excitation filter wavelength of 488 nm and a band-pass emission filter of 600/30 nm. Each image was scanned using an oil-immersion, 100×, 1.4 N.A. objective at 512 by 512 by 8 bits per pixel resolution, background offset of −1 and line averaged 32 times. The confocal images were saved as grey-scale tagged image file format (TIFF) files for analysis and recolourization. The Metamorph™ (Universal Imaging, Ltd.) image capture and analysis system for Windows was used to measure the intensity of CMTMR fluorescence in individual mitochondria. In each mitochondrion, no fewer than two regions were defined by a box measuring 9 pixels square each. The average intensity per pixel within each defined region is measured and automatically logged to a Microsoft Excel spreadsheet for analysis.
At the end of the indicated time point, Schwann cells so treated were incubated with CMTMR to estimate ΔΨM, fixed with 4% paraformaldehyde, and processed for the immunocytochemical co-localization of hexokinase (Type 1) to mitochondria. The fixed coverslips were blocked for 1 hr with 10% normal donkey serum to minimize non-specific binding, and incubated with a mouse monoclonal antibody raised against hexokinase (Type 1; Chemicon) at a dilution of 1:500 overnight at 4° C. Coverslips were washed in PBS and incubated with a Cy5 conjugated donkey anti-mouse (Jackson Immuno Research) at a dilution of 1:250 for 1 hr at room temperature. Coverslips were then washed with PBS and mounted with Aquamount (BDH).

A further data set has as its system PC12 cells. The following applies: cited from earlier work.
Data set [1] concerns cultured cerebellar granule cells. The following applies: cited from earlier work.
Data set [2] has as its system neuronal and non-neuronal cells. Particulars: several systems; cited from earlier work.
Data set [3] can be described thus: Hepatic metabolism after oral administration.
A short description of data set [4]: Stability of deprenyl versus pH of the medium. Particulars: pH about 3-5 versus pH about 7.
A short description of data set [5]: Cell rescue with P450 inhibitor Proadifen (animal and cell-culture studies). The following applies: P450 inhibitor Proadifen co-administered.
The subject of data set [6] is PD2 (non-proliferating) and PD15 (proliferating) Schwann cells. The data set can be described thus: Schwann cell survival in high glucose media (counts of intact nuclei). The data set is classed as cell-based, rat. The following applies: IGF-1 1 ng/ml, NAC 10^−7 M, DMD 10^−9 M; for Schwann cell survival: 24 hr of high glucose exposure (40 mM); for number of cells (intact nuclei relative to 5.5 mM glucose control): 40 mM glucose, 2 hr.

The test system of a further data set is Schwann cells. The data set can be described thus: NO production by Griess reaction (secreted nitrite in culture medium). The following applies: for NO2 production: Schwann cells exposed to 40 mM glucose, 24 hr, DMD 10^−9 M, L-NIL 10^−4 M. In kind it is cell-based, rat. The protocol: To determine the role of NO signaling in high glucose induced Schwann cell apoptosis, PD2 and PD15 Schwann cells were cultured, as described, in the presence of 5.5 or 40 mM glucose for 24 hr. Cells exposed to 40 mM glucose were also treated with DMD (10^−9 M), the NOS inhibitor L-NIL (10^−4 M) or an inhibitor of the constitutive, Ca^++-dependent isoform of NOS (cNOS), S-methyl-thiocitruline (SMTC, 10^−4 M). […] PD2 Schwann cells were also treated with increasing amounts of TNF-α […] plus IFN-γ (50, 100, 250, and 500U) for 24 hr to establish a dose-response threshold for the assay.
The Griess reaction, which measures secreted nitrite (NO2) in the culture medium, was used to investigate NO production by Schwann cells.

`C=C1[C@@H]2CC[C@H]3[C@]4(C)C[C@H](O[C@@H]5O[C@H](CO)[C@@H](OS(=O)(=O)O)[C@H](OS(=O)(=O)O)[C@H]5OC(=O)CC(C)C)C[C@@H](C(=O)O)[C@H]4CC[C@]3(C2)[C@H]1O` [ATR, atractyloside]: in the data set on PD2 Schwann cells, the “distribution frequencies of ΔΨM (CMTMR intensity)” value is “pronounced shift to the left” and the “CMTMR fluorescent intensity (confocal images)” value (“CMTMR fluorescent intensity” for short) is listed as “decreased CMTMR brightness”.
Take `C#CCN(C)[C@H](C)Cc1ccccc1` [(−)-deprenyl, R-(−)-N,α-Dimethyl-N-2-propynyl phenethylamine]: in the data set on PC12 cells, the “trophic withdrawal induced drop in ΔΨM” value was “prevent”. The “AraC induced drop in ΔΨM” value in data set [1] is recorded as “prevent”. Further, the “apoptotic death of neuronal and non-neuronal cells” value in data set [2] was “reduce the apoptotic death”. Moreover, in data set [3], the “metabolites formed by the liver” value was “(−)-desmethyldeprenyl, as well as (−)-methamphetamine and (−)-amphetamine”. Further, the stability entry in data set [4] was “more stable at a pH in the range of about 3-5 than at a pH of about 7”. For the same compound, the “cell-rescuing activity on administration of Proadifen” value in data set [5] is reported as “reduces the ability of (−)-deprenyl to prevent cell death”.
Consider `C#CCNC(C)Cc1ccccc1` (single isomer, unassigned; (-)) [DMD, (−)-desmethyldeprenyl], for which the Schwann cell survival result in [6] is recorded as “significantly improve Schwann cell survival”. For the same compound, the “number of cells (intact nuclei relative to 5.5 mM glucose control)” value in data set [6] (non-proliferating cells) was “significant increase”. Also, the “number of cells (intact nuclei relative to 5.5 mM glucose control)” value in data set [6] (proliferating cells) is recorded as “significant increase”. Further, in the data set with PD2 Schwann cells, the “distribution frequencies of ΔΨM (CMTMR intensity)” value is recorded as “restored ΔΨM distributions comparable with the base media” and the “CMTMR fluorescent intensity” value is “comparable levels of CMTMR fluorescent intensity compared with cells in base media”. Moreover, in the data set with Schwann cells, the NO2 production entry is reported as “slight decrease”. The “cell-rescuing activity on administration of Proadifen” value in data set [5] is “does not block the cell-rescuing activity”.
On to `CC(=O)N[C@@H](CS)C(=O)O` [NAC, N-acetyl-L-cysteine], for which the Schwann cell survival entry in data set [6] is “significantly improve Schwann cell survival”. Besides, the “number of cells (intact nuclei relative to 5.5 mM glucose control)” value in [6] (non-proliferating cells) and in [6] (proliferating cells) was “significant increase” each time.
Regarding `CC(=N)NCCCC[C@H](N)C(=O)O` [L-NIL], the “stimulation of NO2 release by TNF-α/IFN-γ” value in the data set with Schwann cells (L-NIL added) was “prevented”. Also, the NO2 production entry in the data set on Schwann cells was “slight decrease”.
On to cyclosporin A [CsA], for which the “CMTMR fluorescent intensity” value in the data set on PD2 Schwann cells is “enhanced brightness”.
With “IGF-1: insulin-dependant growth factor (IGF); anti-apoptotic agent added to high glucose media”, in data set [6], the Schwann cell survival entry was “significantly improve Schwann cell survival”. Also, the “number of cells (intact nuclei relative to 5.5 mM glucose control)” value in data set [6] (non-proliferating cells) and in [6] (proliferating cells) was “significant increase” in each case.
